For test [1], the system named is ERK1/2 phosphorylation of p90RSK in HT29 cells. The test can be described thus: pRSK MSD Assay in HT29 cells. The note with it: Homo sapiens, HT-29, read-out: ERK1/ERK2 PRSK MSD HT29 EC50. The test is classed as cell-based. In a few lines:
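Serum-starved HT29 cells (0.1% FBS overnight) treated with test compound for 120 min at 37° C, then lysed with protease and phosphatase inhibitors. Phospho-p90RSK quantified by MSD sandwich immunoassay: RSK capture antibody, phospho-RSK detection antibody plus Sulfo-tagged antibody, electrochemiluminescence read.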

Another test addresses T1, MEK1 activated ERK1 (Homo sapiens, UniProt P27361).
T1 construct: purchased Millipore (Billerica, Mass.) 14-439-K
Kind of test: Omnia continuous-read kinase assay for potency against MEK1 activated ERK1. The test is classed as biochemical. As to conditions: MEK1 activated ERK1, ATP at KM; read-out: ERK1 Omnia WT ATP KM IC50. In a few lines:
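Apparent IC50 came from initial reaction slopes (RFU vs time) plotted against log inhibitor with a variable-slope fit. Reactions were started with ERK1 (4 nM final) added to 50 μM ATP, roughly at its appKM, and 10 μM Sox-conjugated ST17 peptide in 20 mM Tris pH 7.5, 5 mM MgCl2. Fluorescence was monitored every 71 seconds.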

The target in another test is T2, Erk1 (Homo sapiens, UniProt P27361).
T2 construct: purchased Millipore 14-439
T2 sequence (P27361 whole entry): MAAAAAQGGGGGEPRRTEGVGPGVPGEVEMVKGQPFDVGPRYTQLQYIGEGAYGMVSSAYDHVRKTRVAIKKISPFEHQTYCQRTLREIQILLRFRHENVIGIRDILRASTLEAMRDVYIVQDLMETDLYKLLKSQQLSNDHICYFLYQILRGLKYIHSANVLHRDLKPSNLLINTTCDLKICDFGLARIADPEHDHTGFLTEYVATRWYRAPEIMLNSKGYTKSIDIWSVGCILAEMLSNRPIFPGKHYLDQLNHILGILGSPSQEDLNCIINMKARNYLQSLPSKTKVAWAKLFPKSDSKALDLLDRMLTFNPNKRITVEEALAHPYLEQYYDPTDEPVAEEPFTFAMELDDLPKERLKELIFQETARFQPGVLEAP
Kind of test: Protein Mass Modification Assay (intact protein MALDI, 60 min, 10-fold excess of compound). Format: binding. The method, boiled down:
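Human Erk1 was incubated 60 min at room temperature with a 10-fold molar excess of compound, then analysed as intact protein by MALDI with sinapinic acid matrix. The centroid mass shift versus untreated protein was divided by compound molecular weight to give percent modified protein.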

In another test the test system is ERK1/ERK2. The test can be described thus: Measurement of Erk occupancy with biotinylated covalent probe I-299 (HT-29). The test is classed as cell-based. As to conditions: HT-29 cells. The protocol: Measurement of Erk Occupancy with Biotinylated Covalent Probe
This experiment measured occupancy of the ERK1/ERK2 target by compounds according to the invention. This experiment was conducted using the Mesoscale Discovery test kit (Cat. # N45107B). One day before the assay, cells were split and added at 50,000 cells per well to a flat-bottom 96 well plate in 200 μl of growth medium. The next day, the medium was discarded, 100 μl medium containing test compound was added, and the plate was incubated at 37° C. for 120 minutes. The plate was rinsed once with PBS, and 50 μl lysis buffer with test compound was added. The plate was incubated at 4° C. for 30 min, and 30 μl of lysate was transferred to a plate to capture total and phosphor-Erk. Biotinylated probe 1-299 was diluted in lysis buffer and added to each well to a final concentration of 0.2 μM. The plate was incubated for 2 hr under constant shaking at room temperature. The plate was washed 3 times with MSD wash buffer. To detect the biotinylated probe bonding, tagged streptavidin was added (Mesoscale Discovery, Cat. # R32AD-1) at 1 μg/ml, 25 μl/well, followed by a 60 min incubation under shaking. The plate was washed 3 times, 150 μl MSD Read Buffer (Mesoscale Discovery, Cat. R61TX) was added and the plate was read in a plate reader manufactured by MSD. Percent occupancy by test compound at Erk was calculated by comparing the chemiluminescence readings from treated cells as compared to the chemiluminescence readings in untreated controls (which are defined as 100% probe bonding or 0% test compound occupancy). The amount of covalent probe signal divided by the amount of ERK signal for samples with no test compound treatment represents the maximum probe signal (MPS). In samples treated with test compound prior to covalent probe, the ratio of probe signal to ERK signal (the test probe signal, TPS) was reduced by the degree of target occupancy by the test compound which blocks covalent probe binding. The difference between the MPS and the TPS, divided by the MPS gave the target occupancy by the test compound. This ratio was then expressed as a percent occupancy. Results from this assay are provided in Table A below under the column “Occupancy EC50 (nM) HT-29.”

Test [2] has as its system HT-29 cells (colorectal adenocarcinoma). The test can be described thus: Inhibition of cancer cell proliferation, HT-29 (CellTiterGlo, 72 hours). Format: cell-based. As to conditions: Homo sapiens. The method, boiled down:
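HT-29 cells seeded at 3000/well, then treated with 3-fold serial dilutions from a 5,000 nM two-fold solution in serum-free RPMI1640, untreated wells as control, for 72 h at 37° C. CellTiterGlo luminescence converted to cell number via a standard curve; GI50 from percent inhibition versus untreated growth.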

Test [3] relates to HCT116 cells (colorectal carcinoma). Kind of test: Inhibition of cancer cell proliferation, HCT116 (CellTiterGlo, 72 hours). As to conditions: Homo sapiens, HCT-116. The test is classed as cell-based. The protocol: Measurement of Inhibition of Cancer Cell Proliferation (HCT116/Colorectal Carcinoma)
The following protocol used a HCT116 cell line, which cell line is a model for colorectal carcinoma. HCT116 cells were split and 3000 cells in 100 μl of growth medium were added per well of a flat-bottom 96-well plate. A two-fold test compound solution in serum-free RPM1640 was made, starting at 5,000 nM. Then, 3-fold serial dilutions were made across the plate from well 1 to well 11. Well 12, the last well in a row on the plate, was left as untreated control. 100 μl compound solutions were then transferred to the wells, so the total volume of media was 200 μl per well. Plates were returned to a 37° C. incubator, and the cells were cultured for 72 hours. To measure cell proliferation after 72 hours, media was discarded from the plates, 50 μl/well of fresh medium was added, and 50 μl CellTiterGlo solution was added (Promega Cat#G7573). The plate was covered with a dark lid and incubated for 10 min. A white sealing tape was applied to the bottom of the plate, and the plate was read in a luminescence plate reader. […] 50 μl CellTiterGlo was added per well, and the plate was read in a luminescence plate reader after 10 min. The reading was plotted vs. cell number to generate a standard curve and the equation of the curve fit. The compound-treated sample luminescence readings were converted to cell numbers using the curve-fit equation. The percent of inhibition, using untreated control as 100% growth, was then calculated. GI50 was then calculated by GraphPad Prism.
For orientation: In ATP-based viability assays light output follows the ATP content of the culture.

In test [4] the test system is ERK1/2 phosphorylation of p90RSK (pRSK). The test can be described thus: Duration of action after washout: p-RSK inhibition at 6 hr. Format: cell-based. The note with it: 6 hr after washout.
Method: Measurement of Duration of Action of Test Compounds
One day before the assay, the cells were split and added at 50,000 cells per well in flat-bottom 96 well plate in 200 μl of growth media. The next day, the medium was discarded, 100 μl medium containing test compounds was added, and the plate was incubated at 37° C. for 120 minutes. The medium was discarded, and the cells were rinsed 3 times with PBS followed by addition of 200 μl of fresh grow medium. The plate was returned to a 37° C. incubator, and separate cell lysates were made using MSD lysis buffer after 0.25, 0.5, 1, 2, 4, 6, 8 and 18 or 24 hours. Thereafter, pRSK was measured as described above in the section entitled pRSK MSD Assay.
In test [5] the test system is ERK1/2 phosphorylation of p90RSK in A375 cells. Kind of test: Detection of total and phosphor-RSK by MSD ELISA (A375). As to conditions: Homo sapiens, A-375, read-out: ERK1/ERK2 PRSK A375 EC50. The test is classed as cell-based. The method, boiled down: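 A375 cells serum-starved overnight in DMEM/0.1% FBS, then treated 2 h at 37° C with compound (1000× DMSO dilutions into medium). Lysates captured on RSK antibody-coated MSD plates; phospho-RSK (Ser380) and total RSK detected with SulfoTag secondary antibodies by electrochemiluminescence.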
Background: An ELISA detects its analyte on a solid surface through an enzyme-linked reagent.

Test [6] relates to A375 cells (malignant melanoma). Kind of test: Inhibition of cancer cell proliferation, A375 (CellTiterGlo, 72 hours). The test is classed as cell-based. As to conditions: Homo sapiens, A-375. The method, boiled down:
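A375 melanoma cells, 3000/well, exposed 72 h at 37 °C to compound in 3-fold serial dilutions (solution added as 2× stock starting at 5,000 nM in serum-free DMEM). CellTiterGlo luminescence converted to cell number via standard curve; % inhibition vs untreated control, GI50 from curve fit.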

T1 sequence (P27361 whole entry): as above

Regarding `C=CC(=O)Nc1ccccc1Nc1nc(N[C@@H]2CCC[C@H](C(N)=O)C2)ncc1C(F)(F)F` (racemic) [Compound I-2, Rac-cis-3-((4-((2-acrylamidophenyl)amino)-5-(trifluoromethyl)pyrimidin-2-yl)amino)cyclohexanecarboxamide], the EC50 (in test [1]; in the test with ERK1/ERK2) was < 100 nM throughout. For the same molecule, the IC50 – broadly, the point on the concentration scale where inhibition reaches its midpoint – at MEK1 activated ERK1 is < 100 nM. The “ERK1 Mass Mod (%)” value at Erk1 is reported as “E (a mass modification of ≧70%)”. Moreover, the GI50 (in general, the concentration that inhibits growth by half) in test [2] is 101 to 500 nM.

Regarding `C=CC(=O)Nc1ccccc1Nc1nc(NC2CCCC(C(N)=O)C2)ncc1Cl` (racemic) [Compound I-102], the EC50 (in test [1]; in the test with ERK1/ERK2) was < 100 nM each time. Also, at Erk1, the “ERK1 Mass Mod (%)” value is reported as “E (a mass modification of ≧70%)”. Also, the GI50 in test [2] is 101 to 500 nM.

Turning to `C=CC(=O)Nc1ccccc1Nc1nc(N[C@H]2CCCN(C(=O)CO)C2)ncc1C(F)(F)F` [Compound I-15, (S)—N-(2-((2-((1-(2-hydroxyacetyl)piperidin-3-yl)amino)-5-(trifluoromethyl)pyrimidin-4-yl)amino)phenyl)acrylamide], the GI50 in [3], in test [6] and in [2] was < 100 nM each time. Moreover, the “p-RSK inhibition at 6 hr (%)” value in [4] is reported as “E (a p-RSK inhibition percent of ≧70%)”. The EC50 in [5] was < 100 nM.

For `C=CC(=O)Nc1ccccc1Nc1nc(Nc2cc(C(N)=O)c(F)cc2C)ncc1C(F)(F)F` [Compound I-76, 5-((4-((2-Acrylamidophenyl)amino)-5-(trifluoromethyl)pyrimidin-2-yl)amino)-2-fluoro-4-methylbenzamide], the EC50 in [1] was 501 to 999 nM; with ERK1/ERK2, < 100 nM. The values for the GI50 in [6] and in test [2] were 101 to 500 nM and < 100 nM, respectively.

Consider `C=CC(=O)Nc1ccccc1Nc1nc(Nc2cc(CO)c(F)cc2C)ncc1C(F)(F)F` [Compound I-77, N-(2-((2-((4-Fluoro-5-(hydroxymethyl)-2-methylphenyl)amino)-5-(trifluoromethyl)pyrimidin-4-yl)amino)phenyl)acrylamide], for which the EC50 in [1] is 101 to 500 nM; in the test on ERK1/ERK2, < 100 nM. Besides, the results for the GI50 in [3], in test [6] and in test [2] were 101 to 500 nM, 101 to 500 nM and < 100 nM, respectively.

As to `C=CC(=O)Nc1ccccc1Nc1nc(Nc2cc(S(N)(=O)=O)ccc2C)ncc1Cl` [Compound I-205, N-(2-((5-chloro-2-((2-methyl-5-sulfamoylphenyl)amino)pyrimidin-4-yl)amino)phenyl)acrylamide], the EC50 (in test [1]; with ERK1/ERK2) was < 100 nM throughout. The GI50 in test [2] is < 100 nM.

On to `C=CC(=O)Nc1cc(F)ccc1Nc1nc(Nc2cc(C(N)=O)ccc2C)ncc1Cl` [Compound I-206, 3-((4-((2-acrylamido-4-fluorophenyl)amino)-5-chloropyrimidin-2-yl)amino)-4-methylbenzamide], for which the results for the EC50 (in test [1]; in the test on ERK1/ERK2) were 101 to 500 nM and < 100 nM, respectively. For the same molecule, in test [2], the GI50 was < 100 nM.

With `C=CC(=O)Nc1ccccc1Nc1nc(Nc2ccc(F)cc2C#N)ncc1Cl` [Compound I-211, N-(2-((5-chloro-2-((2-cyano-4-fluorophenyl)amino)pyrimidin-4-yl)amino)phenyl)acrylamide], the EC50 (in [1]; in the test on ERK1/ERK2) was < 100 nM throughout. In addition, the GI50 in test [2] lay in the range of 101 to 500 nM.

For the molecule `C=CC(=O)Nc1cc(F)ccc1Nc1nc(Nc2ccc(F)cc2C)ncc1Cl` [Compound I-212, N-(2-((5-chloro-2-((4-fluoro-2-methylphenyl)amino)pyrimidin-4-yl)amino)-5-fluorophenyl)acrylamide], the EC50 (in [1]; in the test on ERK1/ERK2) was < 100 nM each time. Further, the “ERK1 Mass Mod (%)” value on Erk1 is “F (a mass modification of 31-69%)”. The concentration for 50% growth inhibition (GI50) in [2] lay in the range of 101 to 500 nM.

As for `C=CC(=O)Nc1ccccc1Nc1nc(Nc2cc(C(N)=O)c(F)cc2C)ncc1Cl` [Compound I-214, 5-((4-((2-acrylamidophenyl)amino)-5-chloropyrimidin-2-yl)amino)-2-fluoro-4-methylbenzamide], the EC50 (in test [1]; in the test with ERK1/ERK2) was < 100 nM each time. In addition, the GI50 in test [2] was < 100 nM.

Turning to `C=CC(=O)Nc1ccccc1Nc1nc(Nc2cc(C(N)=O)ccc2C)ncc1Cl` [Compound I-319, 3-(4-(2-acrylamidophenylamino)-5-chloropyrimidin-2-ylamino)-4-methylbenzamide], the EC50 (in [1]; in the test with ERK1/ERK2) was < 100 nM throughout. In test [2], this molecule gave a GI50 of 101 to 500 nM.

Source of the values: patent publication US9561228B2 (Celgene Avilomics Research, Inc., priority 2013, dated 2017).
